Key:
[1] = system: CGS 21680-induced catalepsy; assay: Activity on CGS 21680-induced catalepsy; assay type: in vivo, mouse; conditions: 10 mg/kg oral; for inhibition in vivo at 10 mg/kg: Mus musculus, 1 h, percentage reduction of total score vs control group, read-out: Remission ratio (%); for Total score: total catalepsy score of 10 mice (maximum 50 points), 1 hour after administration
Experimental: This test was carried out using 10 animals per group of male ddY mice of 5 week age (22 to 25 g in body weight, Japan SLC). […] One hour after the administration of the test compound, only forelimbs or only hindlimbs of each animal were laid on a vertically arranged stand made of acryl, having a size of 4.5 cm in height and 1.0 cm in width, to measure catalepsy symptoms. All of the test compounds were administered orally in a dose of 10 mg/kg.
(§1) The effect was judged by total catalepsy scores of 10 animals in one group (the maximum score is 50 points). When total score was 40 points or less, the activity of the compounds was judged positive. The number of animals showing remission of catalepsy was expressed by the number of cases in which the catalepsy score was 4 points or less in 10 cases. The catalepsy remission ratio was expressed as the percentage reduction of the total score in the test compound-administered group to the total score in the control group.

Rat A2A receptor = target: T1, Rat A2A receptor (Rattus norvegicus, UniProt P30543); assay: Adenosine A2A receptor binding test (3H-CGS 21680 binding); conditions: 10^−6 mol/L test compound, rat corpus striatum
T1 construct: from tissue; host or cells: rat corpus striatum membrane preparation
Experimental: The final precipitate was suspended in 50 mmol/L Tris-HCl buffer (containing 10 mmol/L magnesium chloride and 0.02 unit/mg tissue of adenosine deaminase (manufactured by Sigma Co.)) by adding the buffer to the final precipitate so as to give a tissue concentration of 5 mg (wet weight)/mL.
Inhibition ratio (%)={1−(amount of the binding in the presence of the test compound−amount of the non-specific binding)/(amount of the total binding−amount of the non-specific binding)}×100

[2] = system: reserpine-induced catalepsy; assay: Activity on reserpine-induced catalepsy; assay type: in vivo, mouse; conditions: oral; for Remission ratio (%): percentage reduction of total score vs control group; for Total score: total catalepsy score of 10 mice (maximum 50 points), reserpine 5 mg/kg s.c., 1 hour after administration
Experimental: This test was carried out using 10 animals per group of male ddY mice of 5 week age (22 to 24 g in body weight, Japan SLC). […] Reserpine (5 mg/kg: apoplon, Daiichi Pharmaceutical Co., Ltd.; diluted with distilled water) was subcutaneously administered, and catalepsy-inducing activity was observed from 18 hours after the administration. […] Each test compound was suspended in distilled water for injection containing 0.5% MC (manufactured by Otsuka Pharmaceutical Co., Ltd.) The suspension containing each of the test compounds or a solution containing no test compound (distilled water for injection containing 0.5% MC (manufactured by Otsuka Pharmaceutical Co., Ltd.); control) was orally administered (0.1 mL per 10 g mouse body weight) and, one hour after the administration of test compound, only forelimbs or only hindlimbs of each animal were laid on a stand having a size of 4.5 cm in height and 1.0 cm in width, to measure catalepsy symptoms.
as §1, with “maximum” for “maximum score”, “When the” for “When”, “test compound” for “compounds”

T1 sequence (P30543 whole entry): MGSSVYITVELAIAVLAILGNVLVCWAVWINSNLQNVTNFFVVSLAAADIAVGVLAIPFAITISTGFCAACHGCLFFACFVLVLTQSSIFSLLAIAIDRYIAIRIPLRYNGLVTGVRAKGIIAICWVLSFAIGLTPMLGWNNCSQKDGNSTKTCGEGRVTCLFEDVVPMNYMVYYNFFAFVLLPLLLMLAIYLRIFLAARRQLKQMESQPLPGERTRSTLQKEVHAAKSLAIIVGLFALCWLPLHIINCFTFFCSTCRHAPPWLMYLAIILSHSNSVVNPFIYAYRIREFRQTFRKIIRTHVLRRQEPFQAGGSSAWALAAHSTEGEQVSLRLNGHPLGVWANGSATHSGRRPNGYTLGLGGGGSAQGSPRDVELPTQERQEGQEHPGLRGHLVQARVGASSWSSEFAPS

Row | SMILES | inhibition in vivo at 10 mg/kg [1] [%] | Total score [1] | Rat A2A receptor inhibition ratio (%) (Rat A2A receptor) | Remission ratio (%) [2] [%] | Total score [2] | melting point [°C]
1 | Nc1nc(N2CCN(Cc3nc4ccccc4s3)CC2)cc2nc(-c3ccco3)nn12 [Compound 19, 5-Amino-7-(4-(benzothiazol-2-ylmethyl)piperazinyl)-2-(2-furyl)[1,2,4]triazolo[1,5-c]pyrimidine] | 90 | 5 | 95 | 62 | 19 | 
2 | Cc1onc(-c2ccccc2)c1CN1CCN(c2cc3nc(-c4ccco4)nn3c(N)n2)CC1 [Compound 25, 5-Amino-2-(2-furyl)-7-(4-(5-methyl-3-phenylisoxazol-4-ylmethyl)piperazinyl)[1,2,4]triazolo[1,5-c]pyrimidine] |  |  | 95 |  |  | 244 to 246
3 | CC(C)(O)CCN1CCN(c2cc3nc(-c4ccco4)nn3c(N)n2)CC1 [Compound 7, 5-Amino-2-(2-furyl)-7-(4-(3-hydroxy-3-methylbutyl)piperazinyl)[1,2,4]triazolo[1,5-c]pyrimidine] |  | 8 |  |  | 23 | 
4 | Cc1cc(C(C)N2CCN(c3cc4nc(-c5ccco5)nn4c(N)n3)CC2)no1 (stereo not shown) [Compound 23, 5-Amino-2-(2-furyl)-7-(4-(1-(5-methylisoxazol-3-yl)ethyl)piperazinyl)[1,2,4]triazolo[1,5-c]pyrimidine] |  |  | 75 |  |  | 
5 | CC(C)(O)CCCCN1CCN(c2cc3nc(-c4ccco4)nn3c(N)n2)CC1 [Compound 14, 5-Amino-2-(2-furyl)-7-(4-(5-hydroxy-5-methylhexyl)piperazinyl)[1,2,4]triazolo[1,5-c]pyrimidine] | 82 | 9 |  | 76 | 12 | 
6 | CC(O)(CCN1CCN(c2cc3nc(-c4ccco4)nn3c(N)n2)CC1)c1ccccc1 (stereo not shown) [Compound 9, 5-Amino-2-(2-furyl)-7-(4-(3-hydroxy-3-phenylbutyl)piperazinyl)[1,2,4]triazolo[1,5-c]pyrimidine] |  |  | 89 |  |  | 123 to 124
7 | Nc1nc(N2CCN(Cc3cn4ccncc4n3)CC2)cc2nc(-c3ccco3)nn12 [Compound 16, 5-Amino-2-(2-furyl)-7-(4-(imidazo[1,2-a]pyrazin-2-ylmethyl)piperazinyl)[1,2,4]triazolo[1,5-c]pyrimidine] |  |  | 88 |  |  | 242 to 244
8 | COC(C)(C)CCN1CCN(c2cc3nc(-c4ccco4)nn3c(N)n2)CC1 [Compound 11, 5-Amino-2-(2-furyl)-7-(4-(3-methoxy-3-methylbutyl)piperazinyl)[1,2,4]triazolo[1,5-c]pyrimidine] |  |  | 88 |  |  | 194 to 195
9 | CCC(C)(O)CN1CCN(c2cc3nc(-c4ccco4)nn3c(N)n2)CC1 (stereo not shown) [Compound 2, 5-Amino-2-(2-furyl)-7-(4-(2-hydroxy-2-methylbutyl)piperazinyl)[1,2,4]triazolo[1,5-c]pyrimidine] |  |  | 84 |  |  | 212
10 | Nc1nc(N2CCN(Cc3cn4ccccc4n3)CC2)cc2nc(-c3ccco3)nn12 [Compound 15, 5-Amino-2-(2-furyl)-7-(4-(imidazo[1,2-a]pyridin-2-ylmethyl)piperazinyl)[1,2,4]triazolo[1,5-c]pyrimidine] |  |  | 92 |  |  | 220 to 221
11 | Nc1nc(N2CCN(Cc3ccc4c(c3)OCC(=O)N4)CC2)cc2nc(-c3ccco3)nn12 [Compound 26, 5-Amino-2-(2-furyl)-7-(4-(3-oxo-3,4-dihydro-2H-benzo[1,4]oxazin-7-ylmethyl)piperazinyl)[1,2,4]triazolo[1,5-c]pyrimidine] |  |  | 94 |  |  | 287 to 288
12 | CC(C)(O)CCCN1CCN(c2cc3nc(-c4ccco4)nn3c(N)n2)CC1 [Compound 13, 5-Amino-2-(2-furyl)-7-(4-(4-hydroxy-4-methylpentyl)piperazinyl)[1,2,4]triazolo[1,5-c]pyrimidine] | 80 | 10 |  |  |  | 
13 | Nc1nc(N2CCN(Cc3nc4ccccc4[nH]3)CC2)cc2nc(-c3ccco3)nn12 [Compound 18, 5-Amino-7-(4-(benzimidazol-2-ylmethyl)piperazinyl)-2-(2-furyl)[1,2,4]triazolo[1,5-c]pyrimidine] |  |  | 96 |  |  | 284 to 286
14 | CC(O)(CN1CCN(c2cc3nc(-c4ccco4)nn3c(N)n2)CC1)c1ccccc1 (stereo not shown) [Compound 3, 5-Amino-2-(2-furyl)-7-(4-(2-hydroxy-2-phenylpropyl)piperazinyl)[1,2,4]triazolo[1,5-c]pyrimidine] |  |  | 93 |  |  | 267 to 268
15 | Cc1cc(CN2CCN(c3cc4nc(-c5ccco5)nn4c(N)n3)CC2C)no1 (stereo not shown) [Compound 22, 5-Amino-2-(2-furyl)-7-(3-methyl-4-(5-methylisoxazol-3-ylmethyl)piperazinyl)[1,2,4]triazolo[1,5-c]pyrimidine] | 98 | 1 | 84 | 74 | 13 | 
16 | Nc1nc(N2CCN(Cc3ccc4c(c3)NC(=O)CO4)CC2)cc2nc(-c3ccco3)nn12 [Compound 27, 5-Amino-2-(2-furyl)-7-(4-(3-oxo-3,4-dihydro-2H-benzo[1,4]oxazin-6-ylmethyl)piperazinyl)[1,2,4]triazolo[1,5-c]pyrimidine] | 92 | 4 | 96 |  |  | 
17 | Cc1nocc1CN1CCN(c2cc3nc(-c4ccco4)nn3c(N)n2)CC1 [Compound 24, 5-Amino-2-(2-furyl)-7-(4-(3-methylisoxazol-4-ylmethyl)piperazinyl)[1,2,4]triazolo[1,5-c]pyrimidine] | 96 | 2 | 96 | 72 | 14 | 
18 | Nc1nc(N2CCN(Cc3ccc4nsnc4c3)CC2)cc2nc(-c3ccco3)nn12 [Compound 20, 5-Amino-7-(4-(benzo-2,1,3-thiadiazol-5-ylmethyl)piperazinyl)-2-(2-furyl)[1,2,4]triazolo[1,5-c]pyrimidine] | 90 | 5 |  |  |  | 
19 | CCC(O)(CC)CCN1CCN(c2cc3nc(-c4ccco4)nn3c(N)n2)CC1 [Compound 10, 5-Amino-2-(2-furyl)-7-(4-(3-ethyl-3-hydroxypentyl)piperazinyl)[1,2,4]triazolo[1,5-c]pyrimidine] | 78 | 11 | 87 |  |  | 
20 | COC(C)(C)CN1CCN(c2cc3nc(-c4ccco4)nn3c(N)n2)CC1 [Compound 6, 5-Amino-2-(2-furyl)-7-(4-(2-methoxy-2-methylpropyl)piperazinyl)[1,2,4]triazolo[1,5-c]pyrimidine] | 84 | 8 |  | 78 | 11 | 
21 | Nc1nc(N2CCN(CC3(O)CC3)CC2)cc2nc(-c3ccco3)nn12 [Compound 5, 5-Amino-2-(2-furyl)-7-(4-(1-hydroxycyclopropylmethyl)piperazinyl)[1,2,4]triazolo[1,5-c]pyrimidine] | 90 | 5 |  | 76 | 12 | 
